Experimental data: ChEMBL document CHEMBL1142639, “New triterpenoid saponins from the sponge Melophlus isis” (2000)
≈ marks a conversion by molar mass, not a printed value. Calls of active or inactive are those of the source. No cut-off for these calls is given here.

Key:
[1] = test system: K562; test: Cytotoxicity against human K562 cells; format: functional; conditions: read-out: LC50 (the source's name)
[2] = test system: Vibrio harveyi; test: Antibacterial activity against Vibrio harveyi at 100 ug/mL by paper disk method; format: functional, organism-based
[3] = test system: Photobacterium leiognathi; test: Antibacterial activity against Photobacterium leiognathi at 100 ug/mL by paper disk method; format: functional, organism-based
[4] = test system: Photobacterium phosphoreum; test: Antibacterial activity against Photobacterium phosphoreum at 100 ug/mL by paper disk method; format: functional, organism-based

SMILES	CC50 [1] [µg/mL]	Activity [2]	Activity [3]	Activity [4]	A ctivity [3]
CC(=O)N[C@H]1[C@H](O[C@@H]2CO[C@@H](O[C@H]3CC[C@]4(C)C5=C(CC[C@H]4C3(C)C)[C@@H]3CC[C@H]([C@H](C)CC(=O)C=C(C)C)[C@@]3(C)CC5)[C@H](O[C@@H]3O[C@H](CO[C@@H]4O[C@H](CO)[C@@H](O)[C@H](O)[C@H]4O[C@@H]4O[C@H](CO)[C@@H](O)[C@H](O)[C@H]4O)[C@@H](O)[C@H](O)[C@H]3NC(C)=O)[C@H]2O)O[C@H](CO)[C@H](O)[C@@H]1O [SARASINOSIDE A1]	6.5 (≈ 5.04 µM)				
CC(=O)N[C@H]1[C@H](O[C@@H]2CO[C@@H](O[C@H]3CC[C@@]4(C)[C@@H](CCC5=C6[C@H](O)C[C@H]([C@H](C)CC(=O)C=C(C)C)[C@@]6(C)CC[C@@]54O)C3(C)C)[C@H](O[C@@H]3O[C@H](CO[C@@H]4O[C@H](CO)[C@@H](O)[C@H](O)[C@H]4O[C@@H]4O[C@H](CO)[C@@H](O)[C@H](O)[C@H]4O)[C@@H](O)[C@H](O)[C@H]3NC(C)=O)[C@H]2O)O[C@H](CO)[C@H](O)[C@@H]1O [SARASINOSIDE H1]	> 100	inactive	inactive	inactive	
CC(=O)N[C@H]1[C@H](O[C@@H]2CO[C@@H](O[C@H]3CC[C@@]4(C)[C@@H](CCC5=C6[C@@H](O)C[C@H]([C@H](C)CC(=O)C=C(C)C)[C@@]6(C)CC[C@@]54O)C3(C)C)[C@H](O[C@@H]3O[C@H](CO[C@@H]4O[C@H](CO)[C@@H](O)[C@H](O)[C@H]4O[C@@H]4O[C@H](CO)[C@@H](O)[C@H](O)[C@H]4O)[C@@H](O)[C@H](O)[C@H]3NC(C)=O)[C@H]2O)O[C@H](CO)[C@H](O)[C@@H]1O [SARASINOSIDE I1]	> 100	inactive		inactive	inactive
CO[C@H]1C[C@H]([C@H](C)CC(=O)C=C(C)C)[C@@]2(C)CC[C@@]3(O)C(=C12)CC[C@H]1C(C)(C)[C@@H](O[C@@H]2OC[C@@H](O[C@@H]4O[C@H](CO)[C@H](O)[C@H](O)[C@H]4NC(C)=O)[C@H](O)[C@H]2O[C@@H]2O[C@H](CO[C@@H]4O[C@H](CO)[C@@H](O)[C@H](O)[C@H]4O[C@@H]4O[C@H](CO)[C@@H](O)[C@H](O)[C@H]4O)[C@@H](O)[C@H](O)[C@H]2NC(C)=O)CC[C@@]13C [SARASINOSIDE I2]	> 100	inactive	inactive	inactive	
CC(=O)N[C@H]1[C@H](O[C@@H]2CO[C@@H](O[C@H]3CC[C@]4(C)C5=C(CC[C@H]4C3(C)C)C3=CC[C@H]([C@H](C)CC(=O)C=C(C)C)[C@@]3(C)CC5)[C@H](O[C@@H]3O[C@H](CO[C@@H]4O[C@H](CO)[C@@H](O)[C@H](O)[C@H]4O[C@@H]4O[C@H](CO)[C@@H](O)[C@H](O)[C@H]4O)[C@@H](O)[C@H](O)[C@H]3NC(C)=O)[C@H]2O)O[C@H](CO)[C@H](O)[C@@H]1O [SARASINOSIDE A3]	17.1 (≈ 13.3 µM)				
CO[C@@H]1C[C@H]([C@H](C)CC(=O)C=C(C)C)[C@@]2(C)CC[C@@]3(O)C(=C12)CC[C@H]1C(C)(C)[C@@H](O[C@@H]2OC[C@@H](O[C@@H]4O[C@H](CO)[C@H](O)[C@H](O)[C@H]4NC(C)=O)[C@H](O)[C@H]2O[C@@H]2O[C@H](CO[C@@H]4O[C@H](CO)[C@@H](O)[C@H](O)[C@H]4O[C@@H]4O[C@H](CO)[C@@H](O)[C@H](O)[C@H]4O)[C@@H](O)[C@H](O)[C@H]2NC(C)=O)CC[C@@]13C [SARASINOSIDE H2]	> 100	inactive	inactive	inactive	
